{"source": "ChEMBL document CHEMBL5465560", "about": "“Selectivity Literature for EUbOPEN Chemogenomic Library” (2024)", "key": {"[1]": {"molecular_target": "Tyrosine-protein kinase ABL1 (Homo sapiens, UniProt P00519)", "sequence (P00519 whole entry)": "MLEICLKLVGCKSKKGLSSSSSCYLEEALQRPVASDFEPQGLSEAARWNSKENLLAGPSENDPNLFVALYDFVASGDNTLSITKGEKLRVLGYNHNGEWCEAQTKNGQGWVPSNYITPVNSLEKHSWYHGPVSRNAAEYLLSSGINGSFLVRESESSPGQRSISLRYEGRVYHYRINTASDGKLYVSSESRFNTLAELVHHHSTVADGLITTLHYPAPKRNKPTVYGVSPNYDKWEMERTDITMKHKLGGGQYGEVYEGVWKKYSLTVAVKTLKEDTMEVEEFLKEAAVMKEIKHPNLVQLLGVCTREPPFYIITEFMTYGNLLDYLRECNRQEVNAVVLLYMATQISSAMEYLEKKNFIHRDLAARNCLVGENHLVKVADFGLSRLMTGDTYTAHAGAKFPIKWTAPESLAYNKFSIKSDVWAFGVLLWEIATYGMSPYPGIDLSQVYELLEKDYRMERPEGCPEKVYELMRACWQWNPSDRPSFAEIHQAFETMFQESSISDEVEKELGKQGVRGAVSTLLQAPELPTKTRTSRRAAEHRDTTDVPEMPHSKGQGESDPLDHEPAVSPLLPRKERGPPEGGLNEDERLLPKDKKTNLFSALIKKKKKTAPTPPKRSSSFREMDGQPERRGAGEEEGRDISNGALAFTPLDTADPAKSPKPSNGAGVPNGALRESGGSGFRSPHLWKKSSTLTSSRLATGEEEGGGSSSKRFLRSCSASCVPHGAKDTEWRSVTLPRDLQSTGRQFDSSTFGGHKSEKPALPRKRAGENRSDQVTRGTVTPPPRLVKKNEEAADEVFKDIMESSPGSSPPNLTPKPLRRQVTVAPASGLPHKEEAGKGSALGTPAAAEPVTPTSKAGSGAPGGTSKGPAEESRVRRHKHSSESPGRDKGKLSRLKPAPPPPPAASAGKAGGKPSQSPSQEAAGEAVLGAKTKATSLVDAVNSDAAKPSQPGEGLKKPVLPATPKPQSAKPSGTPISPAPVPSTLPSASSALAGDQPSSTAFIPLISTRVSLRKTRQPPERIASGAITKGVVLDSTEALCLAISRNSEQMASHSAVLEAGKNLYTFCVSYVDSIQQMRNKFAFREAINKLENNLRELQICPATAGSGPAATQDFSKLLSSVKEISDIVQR", "assay": "Selectivity interaction (Kinase panel (literature)) EUB0001199aCl ABL1", "settings": "at 1 µM"}, "[2]": {"molecular_target": "T1, Serine/threonine-protein kinase TBK1 (Homo sapiens) (UniProt Q9UHD2)", "T1 sequence (whole entry)": "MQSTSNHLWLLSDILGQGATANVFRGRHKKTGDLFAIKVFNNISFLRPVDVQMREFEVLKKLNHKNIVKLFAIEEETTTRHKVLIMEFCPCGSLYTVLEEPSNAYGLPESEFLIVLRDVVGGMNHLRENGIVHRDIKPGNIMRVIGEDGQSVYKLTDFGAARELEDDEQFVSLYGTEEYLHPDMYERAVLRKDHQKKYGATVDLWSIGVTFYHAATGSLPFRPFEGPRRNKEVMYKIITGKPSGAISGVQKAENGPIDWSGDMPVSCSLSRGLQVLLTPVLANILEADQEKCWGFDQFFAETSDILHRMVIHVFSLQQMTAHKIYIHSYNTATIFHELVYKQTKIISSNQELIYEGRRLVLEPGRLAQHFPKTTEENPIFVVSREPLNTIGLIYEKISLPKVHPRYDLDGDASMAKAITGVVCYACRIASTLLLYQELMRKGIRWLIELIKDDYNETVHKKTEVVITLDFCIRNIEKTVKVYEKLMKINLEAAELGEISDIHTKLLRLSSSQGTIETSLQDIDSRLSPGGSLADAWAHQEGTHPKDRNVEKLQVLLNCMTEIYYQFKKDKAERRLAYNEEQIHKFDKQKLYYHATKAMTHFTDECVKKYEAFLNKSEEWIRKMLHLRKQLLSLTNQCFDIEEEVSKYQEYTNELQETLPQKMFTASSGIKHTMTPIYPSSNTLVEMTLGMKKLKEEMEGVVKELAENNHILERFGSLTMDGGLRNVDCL", "assay": "Selectivity interaction (Kinase panel (KiNativ target engagement assay in Jurkat cells)) EUB0001635a TBK1", "type": "cell-based", "settings": "Selectivity number of off-targets 0.0, Selectivity number of targets 233.0, Source Knowledge https://www.sciencedirect.com/science/article/pii/S2451945619300674?via%3Dihub, at 1 µM"}, "[3]": {"molecular_target": "5'-AMP-activated protein kinase catalytic subunit alpha-2 (Homo sapiens) (UniProt P54646)", "sequence (P54646 whole entry, looked up)": "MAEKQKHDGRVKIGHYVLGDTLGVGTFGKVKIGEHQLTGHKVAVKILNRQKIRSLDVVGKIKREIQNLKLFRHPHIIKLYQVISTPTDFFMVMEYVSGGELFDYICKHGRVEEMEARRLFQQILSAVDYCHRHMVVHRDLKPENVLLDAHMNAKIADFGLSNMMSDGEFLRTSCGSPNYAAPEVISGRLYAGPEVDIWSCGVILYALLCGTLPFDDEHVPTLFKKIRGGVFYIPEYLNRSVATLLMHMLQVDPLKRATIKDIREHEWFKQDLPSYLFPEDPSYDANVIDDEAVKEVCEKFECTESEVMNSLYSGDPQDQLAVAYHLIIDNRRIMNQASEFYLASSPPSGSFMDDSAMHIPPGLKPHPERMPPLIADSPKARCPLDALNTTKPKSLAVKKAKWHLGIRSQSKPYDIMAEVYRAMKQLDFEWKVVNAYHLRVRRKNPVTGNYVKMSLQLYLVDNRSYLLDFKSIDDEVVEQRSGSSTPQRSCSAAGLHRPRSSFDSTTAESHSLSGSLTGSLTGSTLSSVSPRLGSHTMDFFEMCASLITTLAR", "assay": "Selectivity interaction (ActivX KiNativ screen (kinase selectivity in THP-1 cell lysates)) EUB0000639a PRKAA2", "type": "subcellular", "settings": "lysate"}, "[4]": {"molecular_target": "T2, Dual specificity tyrosine-phosphorylation-regulated kinase 2 (Homo sapiens) (UniProt Q92630)", "T2 sequence (whole entry)": "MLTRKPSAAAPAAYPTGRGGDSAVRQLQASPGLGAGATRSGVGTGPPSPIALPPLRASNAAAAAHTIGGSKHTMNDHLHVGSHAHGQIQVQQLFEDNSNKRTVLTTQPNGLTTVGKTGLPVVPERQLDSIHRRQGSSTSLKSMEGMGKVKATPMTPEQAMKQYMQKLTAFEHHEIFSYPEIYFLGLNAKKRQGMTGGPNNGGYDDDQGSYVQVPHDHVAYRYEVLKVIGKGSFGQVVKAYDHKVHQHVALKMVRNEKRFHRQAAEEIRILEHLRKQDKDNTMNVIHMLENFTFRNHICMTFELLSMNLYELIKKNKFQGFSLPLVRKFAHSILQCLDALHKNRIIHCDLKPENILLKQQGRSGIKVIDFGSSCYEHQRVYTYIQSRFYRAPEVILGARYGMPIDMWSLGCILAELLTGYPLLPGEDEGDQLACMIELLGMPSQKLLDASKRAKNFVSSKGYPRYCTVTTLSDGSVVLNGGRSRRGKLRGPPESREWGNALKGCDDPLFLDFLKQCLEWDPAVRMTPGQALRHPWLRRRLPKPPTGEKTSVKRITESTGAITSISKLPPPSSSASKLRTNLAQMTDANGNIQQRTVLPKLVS", "assay": "Selectivity interaction (KinomeScan (DiscoverX)) EUB0000595a DYRK2", "settings": "at 10 µM"}, "[5]": {"molecular_target": "Mitogen-activated protein kinase kinase kinase kinase 5 (Homo sapiens) (UniProt Q9Y4K4)", "sequence (Q9Y4K4 whole entry, looked up)": "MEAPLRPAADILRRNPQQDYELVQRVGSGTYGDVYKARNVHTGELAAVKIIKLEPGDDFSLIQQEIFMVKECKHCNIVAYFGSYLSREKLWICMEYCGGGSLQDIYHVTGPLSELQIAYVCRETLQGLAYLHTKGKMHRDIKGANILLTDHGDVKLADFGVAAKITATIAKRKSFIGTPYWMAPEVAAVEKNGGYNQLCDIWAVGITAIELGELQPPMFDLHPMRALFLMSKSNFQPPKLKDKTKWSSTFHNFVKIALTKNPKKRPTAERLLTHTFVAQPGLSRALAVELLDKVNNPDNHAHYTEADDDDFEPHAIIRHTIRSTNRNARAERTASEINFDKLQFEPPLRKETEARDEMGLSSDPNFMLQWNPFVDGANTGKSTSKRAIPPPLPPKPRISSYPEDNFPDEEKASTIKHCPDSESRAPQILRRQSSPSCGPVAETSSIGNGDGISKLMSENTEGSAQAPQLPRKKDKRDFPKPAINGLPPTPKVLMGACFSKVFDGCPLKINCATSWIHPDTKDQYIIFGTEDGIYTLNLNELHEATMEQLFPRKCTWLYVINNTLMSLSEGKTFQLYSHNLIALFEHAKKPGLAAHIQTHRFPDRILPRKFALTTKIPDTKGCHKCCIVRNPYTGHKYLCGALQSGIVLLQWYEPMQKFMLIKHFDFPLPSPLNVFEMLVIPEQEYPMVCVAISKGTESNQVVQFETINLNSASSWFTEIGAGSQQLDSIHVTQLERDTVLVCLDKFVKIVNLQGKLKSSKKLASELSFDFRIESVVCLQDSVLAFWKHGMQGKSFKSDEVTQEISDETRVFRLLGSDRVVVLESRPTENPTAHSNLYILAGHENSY", "assay": "Selectivity interaction (ActivX KiNativ screen (ex vivo kinase selectivity in human PBMCs)) EUB0001619a MAP4K5", "type": "cell-based", "settings": "PBMC, at 1 µM"}, "[6]": {"molecular_target": "TRAF2 and NCK-interacting protein kinase (Homo sapiens) (UniProt Q9UKE5)", "assay": "Selectivity interaction (LanthaScreen Eu Kinase Binding Assay) EUB0001632a TNIK", "settings": "at 10 µM"}, "[7]": {"molecular_target": "Protein kinase C beta type (Homo sapiens, UniProt P05771)", "sequence (P05771 2-671 limits assumed)": "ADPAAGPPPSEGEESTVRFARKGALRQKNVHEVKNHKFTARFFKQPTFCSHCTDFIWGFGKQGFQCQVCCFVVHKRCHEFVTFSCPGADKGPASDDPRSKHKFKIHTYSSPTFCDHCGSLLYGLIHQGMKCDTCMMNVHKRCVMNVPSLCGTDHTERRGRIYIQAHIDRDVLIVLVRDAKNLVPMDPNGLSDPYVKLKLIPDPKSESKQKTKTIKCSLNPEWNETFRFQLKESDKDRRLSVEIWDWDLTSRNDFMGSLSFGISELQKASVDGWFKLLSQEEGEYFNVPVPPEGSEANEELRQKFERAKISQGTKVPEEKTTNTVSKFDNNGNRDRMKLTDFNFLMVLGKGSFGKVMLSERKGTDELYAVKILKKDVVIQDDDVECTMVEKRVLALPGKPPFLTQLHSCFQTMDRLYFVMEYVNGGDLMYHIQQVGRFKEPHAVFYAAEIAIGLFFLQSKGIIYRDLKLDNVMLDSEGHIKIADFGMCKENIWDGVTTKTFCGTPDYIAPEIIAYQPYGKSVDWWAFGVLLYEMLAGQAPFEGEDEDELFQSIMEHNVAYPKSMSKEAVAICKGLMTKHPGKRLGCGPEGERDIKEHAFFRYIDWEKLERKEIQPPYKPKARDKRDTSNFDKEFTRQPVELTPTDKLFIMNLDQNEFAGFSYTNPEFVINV", "assay": "Selectivity interaction (Kinase panel (Z-LYTE Assay)) EUB0001632a PRKCB", "settings": "at 10 µM"}, "[8]": {"molecular_target": "Mitogen-activated protein kinase kinase kinase 1 (Homo sapiens, UniProt Q13233)", "sequence (Q13233 whole entry)": "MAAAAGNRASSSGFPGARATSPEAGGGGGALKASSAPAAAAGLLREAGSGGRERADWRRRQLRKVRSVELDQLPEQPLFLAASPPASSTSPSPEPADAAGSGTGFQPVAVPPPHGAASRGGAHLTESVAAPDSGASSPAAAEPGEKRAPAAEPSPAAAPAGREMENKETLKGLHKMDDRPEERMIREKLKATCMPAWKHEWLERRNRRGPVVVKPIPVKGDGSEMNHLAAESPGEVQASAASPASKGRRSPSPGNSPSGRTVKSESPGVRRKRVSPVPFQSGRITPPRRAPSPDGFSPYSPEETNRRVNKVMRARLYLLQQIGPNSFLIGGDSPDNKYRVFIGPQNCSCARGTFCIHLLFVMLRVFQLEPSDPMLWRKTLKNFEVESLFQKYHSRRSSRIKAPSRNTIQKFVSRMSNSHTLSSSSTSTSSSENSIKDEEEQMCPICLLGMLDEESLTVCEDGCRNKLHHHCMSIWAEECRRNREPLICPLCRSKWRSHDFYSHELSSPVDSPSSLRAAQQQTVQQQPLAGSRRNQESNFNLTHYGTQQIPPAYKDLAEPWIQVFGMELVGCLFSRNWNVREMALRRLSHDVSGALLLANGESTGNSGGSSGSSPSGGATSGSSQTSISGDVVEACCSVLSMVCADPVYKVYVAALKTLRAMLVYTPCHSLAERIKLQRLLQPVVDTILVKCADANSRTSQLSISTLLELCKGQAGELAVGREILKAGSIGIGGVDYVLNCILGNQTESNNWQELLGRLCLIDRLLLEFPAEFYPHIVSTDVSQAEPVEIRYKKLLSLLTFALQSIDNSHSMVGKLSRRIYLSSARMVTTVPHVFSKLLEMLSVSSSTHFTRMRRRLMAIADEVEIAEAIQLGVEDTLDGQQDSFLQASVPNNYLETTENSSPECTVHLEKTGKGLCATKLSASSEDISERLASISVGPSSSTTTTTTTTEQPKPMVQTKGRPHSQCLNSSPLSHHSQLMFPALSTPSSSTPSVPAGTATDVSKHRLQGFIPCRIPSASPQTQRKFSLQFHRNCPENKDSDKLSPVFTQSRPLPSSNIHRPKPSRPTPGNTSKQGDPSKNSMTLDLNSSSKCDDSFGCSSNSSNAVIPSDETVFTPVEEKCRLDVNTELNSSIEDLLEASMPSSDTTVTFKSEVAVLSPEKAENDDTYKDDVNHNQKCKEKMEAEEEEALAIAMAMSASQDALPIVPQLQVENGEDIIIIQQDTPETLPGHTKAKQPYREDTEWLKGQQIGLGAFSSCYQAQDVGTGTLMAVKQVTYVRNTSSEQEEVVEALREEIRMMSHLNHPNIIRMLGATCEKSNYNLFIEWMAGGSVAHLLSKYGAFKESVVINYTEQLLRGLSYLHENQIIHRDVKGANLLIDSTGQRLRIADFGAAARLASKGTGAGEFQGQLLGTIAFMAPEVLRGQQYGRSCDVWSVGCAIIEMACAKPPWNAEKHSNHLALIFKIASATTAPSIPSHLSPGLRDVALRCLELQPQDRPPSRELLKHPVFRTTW", "assay": "Selectivity interaction (ProQinase) EUB0000171b MAP3K1"}}, "data": [{"smiles": "CN1Cc2nccc(-c3cn(C)nc3-c3ccc(F)cc3)c2C1=O", "values": [{"measurement": "% of inhibition", "setting": "[1]", "result": 1, "unit": "%"}]}, {"smiles": "C=CC(=O)Nc1ccc(C(=O)Nc2[nH]nc3c2CN(C(=O)N[C@H](CN(C)C)c2ccccc2)C3(C)C)cc1", "values": [{"measurement": "% of engagement", "setting": "[2]", "result": 32.4, "unit": "%"}]}, {"smiles": "CC[C@@H]1[C@H](F)C(=O)N[C@@H]1COc1nccc2cc(C(N)=O)c(OC)cc12", "note": "[ZIMLOVISERTIB]", "values": [{"measurement": "% of inhibition", "setting": "[3]; at 0.01 µM", "result": 16, "unit": "%"}, {"measurement": "% of inhibition", "setting": "[3]; at 0.04 µM", "result": 21.7, "unit": "%"}, {"measurement": "% of inhibition", "setting": "[3]; at 0.2 µM", "result": 11.2, "unit": "%"}, {"measurement": "% of inhibition", "setting": "[3]; at 1 µM", "result": 11.8, "unit": "%"}, {"measurement": "% of inhibition", "setting": "[3]; at 5 µM", "result": 28.8, "unit": "%"}]}, {"smiles": "COCC(=O)NC/C=C/c1ccc2ncnc(Nc3ccc(Oc4ccc(C)nc4)c(C)c3)c2c1", "note": "[CP-724714]", "values": [{"measurement": "% of control", "setting": "[4]", "result": 100, "unit": "%"}]}, {"smiles": "N#Cc1cccc(-c2c[nH]c3ncnc(N4CCOCC4)c23)c1", "values": [{"measurement": "% of inhibition", "setting": "[5]", "result": 13, "unit": "%"}]}, {"smiles": "Cn1cc(-n2cnc3c(NCc4nc5cc(Cl)c(Cl)cc5[nH]4)nc(N4CCOCC4)nc32)cn1", "values": [{"measurement": "% of inhibition", "setting": "[6]", "result": -13.9, "unit": "%"}, {"measurement": "% of control", "setting": "[7]", "result": 15.6, "unit": "%"}]}, {"smiles": "C=CC(=O)Nc1cccc(C(=O)Nc2ccc(Nc3cc(-c4[nH]c(SC)nc4C)ccn3)cc2)c1", "values": [{"measurement": "% of control", "setting": "[8]; at 1 µM", "result": 100, "unit": "%"}, {"measurement": "% of control", "setting": "[8]; at 5 µM", "result": 96, "unit": "%"}]}]}
